Laboratory results taken from ChEMBL document CHEMBL1129354, “Molecular modeling and site-directed mutagenesis studies of a phorbol ester-binding site in protein kinase C” (J Med Chem, 1996).
Active and inactive are the calls of the source. The calls are words filed in the database; no cut-off is given here.

Target: Protein kinase C alpha type (Homo sapiens) (UniProt P17252)
Test: Relative binding affinity for Protein kinase C alpha (Inactive)

In the case of CCCCCCCCCCCCCCCC(=O)OC[C@@H](CO)OC(=O)CCCCCCCCCCCCCCC, the Relative binding affinity is reported as “inactive”.
